Patent US5139945A, “Thermostable alginate lyase from Bacillus steraothermophilus” (Novo Industri A/S, priority 1988, dated 1992)

Tested on: Alginate lyase from Bacillus stearothermophilus
Assay: Effects of chemicals commonly used in water cooling systems on alginate lyase activity
Format: biochemical
Details: for Inhibition (%) of Chemicals on Enzyme Activity: chemical at 10 mM final concentration, 16 hours incubation; for inhibition of the enzyme (in words): mineral content of cooling water
Procedure: Alginate lyase activity (increase in optical density at 230 nm) at 55° C. was monitored with sodium alginate as the substrate. Constant amounts of substrate, enzyme and MgCl2 (10 mM) were present in all reactions. Citrate-phosphate buffer was used between pH 5.0 and 6.5 and phosphate buffer was used between pH 6.0 and 8.0.
EDTA (ethylene diamine tetraacetate), NaCl, FeSO4, NaAlO2, Na2 MoO4, Zn, glutaraldehyde hydrazine and sodium nitrite were tested at the final concentration of 10 mM. Alginate lyase activity was monitored as described in Example 2 over 16 hours incubation.

| Structure (SMILES) | Inhibition (%) of Chemicals on Enzyme Activity | inhibition of the enzyme (in words) |
| --- | --- | --- |
| [Cl-].[Na+] [NaCl] | 48.7% | partially inhibit |
| O=N[O-].[Na+] [NaNO2, sodium nitrite] | 0% |  |
| O=S(=O)([O-])[O-].[Fe+2] [FeSO4] | 0% |  |
| NN [hydrazine] | 0% |  |
| [Na+].[Na+].[O]=[Mo](=[O])([O-])[O-] [Na2 MoO4] | 0% |  |

Second part, led by results:

| Inhibition (%) of Chemicals on Enzyme Activity | Structure (SMILES) | inhibition of the enzyme (in words) |
| --- | --- | --- |
| 0% | [Na+].[O]=[Al-]=[O] [NaAlO2] |  |
| 0% | O=C(O)CN(CCN(CC(=O)O)CC(=O)O)CC(=O)O [EDTA, ethylene diamine tetraacetate] |  |
| 43.7% | [Zn] [Zn] | partially inhibit |
| 0% | O=CCCCC=O [glutaraldehyde] |  |
